Laboratory results from patent US20250098679A1, “HERBICIDAL PYRIDONE DERIVATIVES” (SYNGENTA CROP PROTECTION AG, priority 2021, published 2025).

Columns and labels:
Type in all cases: in vivo
Details in all cases: evaluated after 13 days
Setaria faberi (SETFA) [1] = assay: Pre-emergence Test, Setaria faberi (SETFA)
[2] = system: Echinochloa crus-galli (ECHCG); assay: Pre-emergence Test, Echinochloa crus-galli (ECHCG)
Zea mays (ZEAMX) [3] = assay: Pre-emergence Test, Zea mays (ZEAMX)
[4] = system: Ipomoea hederacea (IPOHE); assay: Pre-emergence Test, Ipomoea hederacea (IPOHE)
[5] = system: Amaranthus palmeri (AMAPA); assay: Pre-emergence Test, Amaranthus palmeri (AMAPA)
[6] = system: Amaranthus retoflexus (AMARE); assay: Pre-emergence Test, Amaranthus retoflexus (AMARE)
Setaria faberi (SETFA) [7] = assay: Post-emergence Test, Setaria faberi (SETFA); parameters: key to percentage damage caused to the plant, SETFA (five-point scale): 5=81-100%, 4=61-80%, 3=41-60%, 2=21-40%, 1=0-20% damage
Outline: (§1)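 Application was a spray of acetone/water (50:50) with 0.5% Tween 20 onto pots of test species sown in standard soil. Unless otherwise stated, the rate was 1000 g/ha. After 13 days under glasshouse conditions (24/16 °C, 65% humidity), injury was scored from 1 (0-20%) to 5 (81-100%).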

[8] = system: Echinochloa crus-galli (ECHCG); assay: Post-emergence Test, Echinochloa crus-galli (ECHCG); parameters: key to percentage damage caused to the plant, ECHCG (five-point scale): 5=81-100%, 4=61-80%, 3=41-60%, 2=21-40%, 1=0-20% damage
Outline: as §1

Zea mays (ZEAMX) [9] = assay: Post-emergence Test, Zea mays (ZEAMX); parameters: key to percentage damage caused to the plant, ZEAMX (five-point scale): 5=81-100%, 4=61-80%, 3=41-60%, 2=21-40%, 1=0-20% damage
Outline: as §1

[10] = system: Ipomoea hederacea (IPOHE); assay: Post-emergence Test, Ipomoea hederacea (IPOHE); parameters: key to percentage damage caused to the plant, IPOHE (five-point scale): 5=81-100%, 4=61-80%, 3=41-60%, 2=21-40%, 1=0-20% damage
Outline: as §1

[11] = system: Amaranthus palmeri (AMAPA); assay: Post-emergence Test, Amaranthus palmeri (AMAPA); parameters: key: 5=81-100%, 4=61-80%, 3=41-60%, 2=21-40%, 1=0-20% damage
Outline: as §1

[12] = system: Amaranthus retoflexus (AMARE); assay: Post-emergence Test, Amaranthus retoflexus (AMARE); parameters: key to percentage damage caused to the plant, AMARE (five-point scale): 5=81-100%, 4=61-80%, 3=41-60%, 2=21-40%, 1=0-20% damage
Outline: as §1

Compound	Pre-emergence Test SETFA, percentage damage caused to the plant (five-point scale) (Setaria faberi (SETFA) [1]; 250 g/Ha (*))	Pre-emergence Test ECHCG, percentage damage caused to the plant (five-point scale) ([2]; 250 g/Ha (*))	percentage damage caused to the plant, SETFA (five-point scale) (Setaria faberi (SETFA) [7]; 250 g/Ha)	percentage damage caused to the plant, ECHCG (five-point scale) ([8]; 250 g/Ha)	percentage damage caused to the plant, ZEAMX (five-point scale) (Zea mays (ZEAMX) [9]; 250 g/Ha)	percentage damage caused to the plant, IPOHE (five-point scale) ([10]; 250 g/Ha)	percentage damage caused to the plant, AMAPA (five-point scale) ([11]; 250 g/Ha)	percentage damage caused to the plant, AMARE (five-point scale) ([12]; 250 g/Ha)	Pre-emergence Test SETFA, percentage damage caused to the plant (five-point scale) (Setaria faberi (SETFA) [1]; 1000 g/ha)	Pre-emergence Test ECHCG, percentage damage caused to the plant (five-point scale) ([2]; 1000 g/ha)	Pre-emergence Test ZEAMX, percentage damage caused to the plant (five-point scale) (Zea mays (ZEAMX) [3]; 1000 g/ha)	Pre-emergence Test IPOHE, percentage damage caused to the plant (five-point scale) ([4]; 1000 g/ha)	Pre-emergence Test AMAPA, percentage damage caused to the plant (five-point scale) ([5]; 1000 g/ha)	Pre-emergence Test AMARE, percentage damage caused to the plant (five-point scale) ([6]; 1000 g/ha)	percentage damage caused to the plant, SETFA (five-point scale) (Setaria faberi (SETFA) [7]; 1000 g/ha)	percentage damage caused to the plant, ECHCG (five-point scale) ([8]; 1000 g/ha)	percentage damage caused to the plant, ZEAMX (five-point scale) (Zea mays (ZEAMX) [9]; 1000 g/ha)	percentage damage caused to the plant, IPOHE (five-point scale) ([10]; 1000 g/ha)	percentage damage caused to the plant, AMAPA (five-point scale) ([11]; 1000 g/ha)	percentage damage caused to the plant, AMARE (five-point scale) ([12]; 1000 g/ha)	also measured
CCn1c(Cn2ncc3cc(Cl)ccc32)cc(=O)c(C(=O)O)c1-c1ccc(Cl)c(Cl)c1 [Compound 98, 6-[(5-chloroindazol-1-yl)methyl]-2-(3,4-dichlorophenyl)-1-ethyl-4-oxo-pyridine-3-carboxylic acid]	0	0	1 (1=0-20%)	2 (2=21-40%)	1 (1=0-20%)	1 (1=0-20%)	0	1 (1=0-20%)	–	–	–	–	–	–	–	–	–	–	–	–	Pre-emergence Test ZEAMX, percentage damage caused to the plant (five-point scale) (Zea mays (ZEAMX) [3]; 250 g/Ha (*)): 0; Pre-emergence Test IPOHE, percentage damage caused to the plant (five-point scale) ([4]; 250 g/Ha (*)): 0; Pre-emergence Test AMAPA, percentage damage caused to the plant (five-point scale) ([5]; 250 g/Ha (*)): 1 (1=0-20%); Pre-emergence Test AMARE, percentage damage caused to the plant (five-point scale) ([6]; 250 g/Ha (*)): 0
CCn1c(Cn2cnc([N+](=O)[O-])c2)cc(=O)c(C(=O)O)c1-c1ccc(Cl)c(Cl)c1 [Compound 50, 2-(3,4-dichlorophenyl)-1-ethyl-6-[(4-nitroimidazol-1-yl)methyl]-4-oxo-pyridine-3-carboxylic acid]	–	–	–	–	–	–	–	–	0	1 (1=0-20%)	0	0	1 (1=0-20%)	1 (1=0-20%)	2 (2=21-40%)	1 (1=0-20%)	1 (1=0-20%)	2 (2=21-40%)	3 (3=41-60%)	0	–
C=CCOc1ccn(Cc2cc(=O)c(C(=O)O)c(-c3ccc(Cl)c(Cl)c3)n2CC)n1 [Compound 163, 6-[(3-allyloxypyrazol-1-yl)methyl]-2-(3,4-dichlorophenyl)-1-ethyl-4-oxo-pyridine-3-carboxylic acid]	0	1 (1=0-20%)	–	–	–	–	–	–	3 (3=41-60%)	4 (4=61-80%)	2 (2=21-40%)	3 (3=41-60%)	0	0	4 (4=61-80%)	3 (3=41-60%)	1 (1=0-20%)	2 (2=21-40%)	1 (1=0-20%)	1 (1=0-20%)	Pre-emergence Test ZEAMX, percentage damage caused to the plant (five-point scale) (Zea mays (ZEAMX) [3]; 250 g/Ha (*)): 0; Pre-emergence Test IPOHE, percentage damage caused to the plant (five-point scale) ([4]; 250 g/Ha (*)): 1 (1=0-20%); Pre-emergence Test AMAPA, percentage damage caused to the plant (five-point scale) ([5]; 250 g/Ha (*)): 0; Pre-emergence Test AMARE, percentage damage caused to the plant (five-point scale) ([6]; 250 g/Ha (*)): 0
CCn1c(Cn2ccc(C(F)(F)F)n2)cc(=O)c(C(=O)O)c1-c1cccc(Cl)c1 [Compound 25, 2-(3-chlorophenyl)-1-ethyl-4-oxo-6-[[3-(trifluoromethyl)pyrazol-1-yl]methyl]pyridine-3-carboxylic acid]	–	–	4 (4=61-80%)	3 (3=41-60%)	0	4 (4=61-80%)	2 (2=21-40%)	2 (2=21-40%)	5 (5=81-100%)	5 (5=81-100%)	1 (1=0-20%)	1 (1=0-20%)	2 (2=21-40%)	2 (2=21-40%)	4 (4=61-80%)	4 (4=61-80%)	3 (3=41-60%)	4 (4=61-80%)	2 (2=21-40%)	2 (2=21-40%)	–
CCn1c(Cn2ccc(C(F)(F)F)n2)cc(=O)c(C(=O)O)c1-c1ccc(Cl)c(C#N)c1 [Compound 128, 2-(4-chloro-3-cyano-phenyl)-1-ethyl-4-oxo-6-[[3-(trifluoromethyl)pyrazol-1-yl]methyl]pyridine-3-carboxylic acid]	–	–	0	1 (1=0-20%)	0	1 (1=0-20%)	0	0	3 (3=41-60%)	1 (1=0-20%)	0	1 (1=0-20%)	1 (1=0-20%)	1 (1=0-20%)	3 (3=41-60%)	4 (4=61-80%)	1 (1=0-20%)	1 (1=0-20%)	1 (1=0-20%)	1 (1=0-20%)	–
CCOC(=O)c1c(-c2ccc(Cl)c(Cl)c2)n(CC)c(Cn2ccc(C(F)(F)F)n2)cc1=O [Compound 1, ethyl 2-(3,4-dichlorophenyl)-1-ethyl-4-oxo-6-[[3-(trifluoromethyl)pyrazol-1-yl]methyl]pyridine-3-carboxylate]	4 (4=61-80%)	2 (2=21-40%)	3 (3=41-60%)	3 (3=41-60%)	1 (1=0-20%)	2 (2=21-40%)	0	0	4 (4=61-80%)	3 (3=41-60%)	0	0	0	0	4 (4=61-80%)	4 (4=61-80%)	3 (3=41-60%)	1 (1=0-20%)	1 (1=0-20%)	1 (1=0-20%)	Pre-emergence Test ZEAMX, percentage damage caused to the plant (five-point scale) (Zea mays (ZEAMX) [3]; 250 g/Ha (*)): 0; Pre-emergence Test IPOHE, percentage damage caused to the plant (five-point scale) ([4]; 250 g/Ha (*)): 0; Pre-emergence Test AMAPA, percentage damage caused to the plant (five-point scale) ([5]; 250 g/Ha (*)): 0; Pre-emergence Test AMARE, percentage damage caused to the plant (five-point scale) ([6]; 250 g/Ha (*)): 0
